Article PMC8480593, “Anti-influenza A virus activity and structure–activity relationship of a series of nitrobenzoxadiazole derivatives” (Journal of Enzyme Inhibition and Medicinal Chemistry, 2021)
Like-named read-outs stand apart in the source and are kept apart here.

Legend:
[1] = system: MDCK cells; test: Cytotoxicity on MDCK cells (MTT and Trypan Blue exclusion); conditions: 1–30 µM, Toxic = toxic at all tested concentrations
[2] = system: influenza virus A/Puerto Rico/8/34 H1N1 (PR8); test: microbe, parasite or virus in culture; assay type: cell-based
[3] = system: influenza virus A/Puerto Rico/8/34 H1N1 (PR8); conditions: A549 cells, CC50 by Trypan Blue exclusion
[4] = system: influenza virus A/Puerto Rico/8/34 H1N1 (PR8); conditions: A549 cells; CC50 from Cell Tag in mock infected cells, IC50 by ICW
[5] = in vitro; conditions: human
[6] = system: influenza virus A/Puerto Rico/8/34 H1N1 (PR8); test: microbe, parasite or virus in culture; conditions: H1N1|PR8, A549, read-out: IC50, HAU – A549
[7] = system: influenza virus A/Puerto Rico/8/34 H1N1 (PR8); test: microbe, parasite or virus in culture; conditions: unidentified influenza virus, A549, read-out: IC50, ICW – A549
[8] = unidentified influenza virus, MDCK, 24 h, read-out: IC50 (concentration required to inhibit viral replication of 50%), MDCK cells infected with PR8 (m.o.i. 0.001), HAU in supernatants 24 h p.i., Inactive = at maximum tested concentration (30 µM)
[9] = MDCK cells infected with PR8 (m.o.i. 0.001), HAU in supernatants 24 h p.i., Inactive = at maximum tested concentration (30 µM)

| Compound | IC50 [2, 8] [µM] | IC50 (concentration required to inhibit viral replication of 50%) [2, 9] | further results |
| --- | --- | --- | --- |
| O=C1CCN(C(=O)CCSc2ccc([N+](=O)[O-])c3nonc23)CC1 [Compound 16] |  |  | Cytotoxicity [1]: Toxic^a |
| O=[N+]([O-])c1ccc(SCCCCCCCCO)c2nonc12 [Compound 6] | > 30 |  |  |
| O=[N+]([O-])c1ccc(Sc2ncccn2)c2nonc12 [Compound 22, 4-nitro-7-(pyrimidin-2-ylthio)benzo[c][1,2,5]oxadiazole] |  |  | melting point: 144 to 147 °C |
| O=[N+]([O-])c1ccc(S(=O)(=O)CCCCCCO)c2nonc12 [Compound 44] | > 30 | Inactive^b |  |
| NC(=O)c1ccc(Sc2ccc([N+](=O)[O-])c3nonc23)cc1 [Compound 31] | > 30 | Inactive^b |  |
| CCOC(=O)c1ccc(Sc2ccc([N+](=O)[O-])c3nonc23)cc1 [Compound 30] | > 30 | Inactive^b |  |
| O=C(O)c1ccccc1Sc1ccc([N+](=O)[O-])c2nonc12 [Compound 27] | > 30 | Inactive^b |  |
| CC(=O)N[C@@H](CSc1ccc([N+](=O)[O-])c2nonc12)C(=O)O [Compound 19, N-acetyl-S-(7-nitrobenzo[c][1,2,5]oxadiazol-4-yl)cysteine] | 24 ± 2.3 |  | IC50 (concentration required to inhibit viral replication of 50%) [2]: effective against IV; melting point: 166 to 168 °C |
| O=C(O)CCC(=O)OCCCCCCSc1ccc([N+](=O)[O-])c2nonc12 [Compound 10] | 22.2 ± 1.4 |  |  |
| O=[N+]([O-])c1ccc(Sc2nc3ccccc3[nH]2)c2nonc12 [Compound 23, 4-((1H-benzo[d]imidazol-2-yl)thio)-7-nitrobenzo[c][1,2,5]oxadiazole] | > 30 | Inactive^b | melting point: 206 to 208 °C |
| O=C(O)c1cccc(Sc2ccc([N+](=O)[O-])c3nonc23)c1 [Compound 28] | > 30 | Inactive^b |  |
| O=C(O)Cc1ccc(Sc2ccc([N+](=O)[O-])c3nonc23)cc1 [Compound 39] | > 30 | Inactive^b |  |
| CCOC(=O)c1ccc(CSc2ccc([N+](=O)[O-])c3nonc23)cc1 [Compound 42] | 17.2 ± 1.6 |  |  |
| O=[N+]([O-])c1ccc(NCCCCCCO)c2nonc12 [Compound 45] | > 30 | Inactive^b | Cytotoxicity [1]: NOT toxic |
| COC(=O)CCSc1ccc([N+](=O)[O-])c2nonc12 [Compound 12] |  |  | IC50 (concentration required to inhibit viral replication of 50%) [2]: effective against IV; SI (CC50/IC50 HAU – A549) [3]: 11; SI (CC50/IC50 ICW – A549) [4]: 5; CC50 at 24 h [5]: 54.5 µM; IC50 [6]: 5.1 ± 0.2 µM; IC50 [7]: 10 ± 0.5 µM |
| O=C(O)CCc1ccc(Sc2ccc([N+](=O)[O-])c3nonc23)cc1 [Compound 40] | 18.3 ± 1.6 |  | IC50 (concentration required to inhibit viral replication of 50%) [2]: effective against IV |
| O=[N+]([O-])c1ccc([S+]([O-])CCCCCCO)c2nonc12 (stereo not shown) [Compound 43] | > 30 | Inactive^b |  |
| CN(C)CCNC(=O)c1ccc(Sc2ccc([N+](=O)[O-])c3nonc23)cc1 [Compound 38] | > 30 | Inactive^b |  |
| O=[N+]([O-])c1ccc(SCc2ccccc2)c2nonc12 [Compound 25] | < 10 |  | IC50 (concentration required to inhibit viral replication of 50%) [2]: effective against IV; IC50 ([2]; read-out: IC50 (concentration required to inhibit viral replication of 50%), MDCK cells infected with PR8 (m.o.i. 0.001), HAU in supernatants 24 h p.i., Inactive = at maximum tested concentration (30 µM)): 6.3 ± 0.5 µM; SI (CC50/IC50 HAU – A549) [3]: 6; SI (CC50/IC50 ICW – A549) [4]: 4; IC50 [6]: 1.9 ± 0.1 µM; IC50 [7]: 8.9 ± 0.6 µM |
| O=C(NO)c1ccc(Sc2ccc([N+](=O)[O-])c3nonc23)cc1 [Compound 33] | > 30 | Inactive^b |  |
| O=C(O)CCC(=O)OCCCCSc1ccc([N+](=O)[O-])c2nonc12 [Compound 9, 4–(4-((7-nitrobenzo[c][1,2,5]oxadiazol-4-yl)thio)butoxy)-4-oxobutanoic acid] | 17.1 ± 0.9 |  | IC50 (concentration required to inhibit viral replication of 50%) [2]: effective against IV; melting point: 90 to 93 °C |
| CC(C)(C)Sc1ccc([N+](=O)[O-])c2nonc12 [Compound 21] | > 30 | Inactive^b |  |
| CN(C)C(=O)c1ccc(Sc2ccc([N+](=O)[O-])c3nonc23)cc1 [Compound 32] | > 30 |  |  |
| O=C(O)c1ccc(CSc2ccc([N+](=O)[O-])c3nonc23)cc1 [Compound 41] | 10.8 ± 0.6 |  | IC50 (concentration required to inhibit viral replication of 50%) [2]: effective against IV |
| COC(=O)C(CSc1ccc([N+](=O)[O-])c2nonc12)NC(=O)OC(C)(C)C (stereo not shown) [Compound 17] |  |  | IC50 (concentration required to inhibit viral replication of 50%) [2]: effective against IV; SI (CC50/IC50 HAU – A549) [3]: 2; SI (CC50/IC50 ICW – A549) [4]: 3; IC50 [6]: 11.7 ± 1 µM; IC50 [7]: 9.6 ± 0.8 µM |
| O=C(NCCO)c1ccc(Sc2ccc([N+](=O)[O-])c3nonc23)cc1 [Compound 37] | > 30 | Inactive^b |  |
| O=C(CCSc1ccc([N+](=O)[O-])c2nonc12)NCCO [Compound 14] | > 30 | Inactive^b |  |
| O=C(O)CCC(=O)OCCOCCSc1ccc([N+](=O)[O-])c2nonc12 [Compound 11, 4–(2–(2-((7-nitrobenzo[c][1,2,5]oxadiazol-4-yl)thio)ethoxy)ethoxy)-4-oxobutanoic acid] | > 30 |  | IC50 (concentration required to inhibit viral replication of 50%) [2]: effective against IV; melting point: 74 to 76 °C |
